Values after ≈ are worked out from the molar mass of the structure shown.
Columns and labels:
[1] = target: T1, Ribosomal protein S6 kinase alpha-3 (Homo sapiens, UniProt P51812); experiment: Inhibition of RSK2 (unknown origin)
[2] = target: T1, Ribosomal protein S6 kinase alpha-3; experiment: Inhibition of RSK2 (unknown origin) assessed as reduction in YB1 […] phosphorylation
[3] = Solubility of the compound in PBS buffer of pH 7.0; assay type: physicochemical
[4] = target: T2, Tyrosine-protein kinase receptor UFO (Homo sapiens, UniProt P30530); experiment: Inhibition of AXL (unknown origin)
T2 sequence (P30530 whole entry): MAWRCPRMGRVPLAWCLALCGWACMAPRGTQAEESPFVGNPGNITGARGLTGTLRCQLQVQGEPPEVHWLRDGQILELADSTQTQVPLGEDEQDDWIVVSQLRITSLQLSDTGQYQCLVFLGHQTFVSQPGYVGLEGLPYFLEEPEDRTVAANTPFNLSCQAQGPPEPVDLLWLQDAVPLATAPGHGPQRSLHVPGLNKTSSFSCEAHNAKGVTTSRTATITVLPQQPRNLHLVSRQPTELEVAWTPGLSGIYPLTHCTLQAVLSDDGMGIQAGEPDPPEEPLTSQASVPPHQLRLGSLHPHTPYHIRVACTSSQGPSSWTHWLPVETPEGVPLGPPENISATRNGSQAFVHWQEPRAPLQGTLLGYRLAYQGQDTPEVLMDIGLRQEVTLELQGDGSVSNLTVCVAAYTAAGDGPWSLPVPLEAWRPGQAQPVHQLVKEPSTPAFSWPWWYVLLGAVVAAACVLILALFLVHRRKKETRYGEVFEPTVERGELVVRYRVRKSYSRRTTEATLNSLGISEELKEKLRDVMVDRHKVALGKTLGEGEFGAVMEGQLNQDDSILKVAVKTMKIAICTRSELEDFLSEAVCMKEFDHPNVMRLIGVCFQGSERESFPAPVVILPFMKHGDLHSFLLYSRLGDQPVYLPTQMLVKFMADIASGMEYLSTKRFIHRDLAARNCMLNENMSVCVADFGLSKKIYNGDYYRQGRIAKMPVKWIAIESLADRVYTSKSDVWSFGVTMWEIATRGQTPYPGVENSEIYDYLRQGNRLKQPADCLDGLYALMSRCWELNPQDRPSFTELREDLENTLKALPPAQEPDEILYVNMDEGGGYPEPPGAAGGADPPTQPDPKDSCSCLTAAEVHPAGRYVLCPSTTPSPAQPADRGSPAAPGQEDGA

[5] = Efflux ratio of permeability of the compound in human Caco2 cells; assay type: ADME, cell-based; conditions: Caco-2
[6] = target: Tyrosine-protein kinase JAK1 (Homo sapiens, UniProt P23458); experiment: Inhibition of JAK1 (unknown origin)
[7] = target: Tyrosine-protein kinase JAK2 (Homo sapiens, UniProt O60674); experiment: Inhibition of JAK2 (unknown origin)
[8] = target: Fibroblast growth factor receptor 1 (Homo sapiens, UniProt P11362); experiment: Inhibition of FGFR1 (unknown origin)
[9] = target: Fibroblast growth factor receptor 2 (Homo sapiens, UniProt P21802); experiment: Inhibition of FGFR2 (unknown origin)
[10] = target: Vascular endothelial growth factor receptor 2 (Homo sapiens, UniProt P35968); experiment: Inhibition of KDR (unknown origin)
[11] = target: Proto-oncogene tyrosine-protein kinase receptor Ret (Homo sapiens, UniProt P07949); experiment: Inhibition of RET (unknown origin)
[12] = target: Ribosomal protein S6 kinase beta-1 (Homo sapiens, UniProt P23443); experiment: Inhibition of RPS6KB1 (unknown origin)
[13] = target: T3, Receptor-type tyrosine-protein kinase FLT3 (Homo sapiens, UniProt P36888); experiment: Inhibition of FLT3 (unknown origin)
T3 sequence (P36888 whole entry): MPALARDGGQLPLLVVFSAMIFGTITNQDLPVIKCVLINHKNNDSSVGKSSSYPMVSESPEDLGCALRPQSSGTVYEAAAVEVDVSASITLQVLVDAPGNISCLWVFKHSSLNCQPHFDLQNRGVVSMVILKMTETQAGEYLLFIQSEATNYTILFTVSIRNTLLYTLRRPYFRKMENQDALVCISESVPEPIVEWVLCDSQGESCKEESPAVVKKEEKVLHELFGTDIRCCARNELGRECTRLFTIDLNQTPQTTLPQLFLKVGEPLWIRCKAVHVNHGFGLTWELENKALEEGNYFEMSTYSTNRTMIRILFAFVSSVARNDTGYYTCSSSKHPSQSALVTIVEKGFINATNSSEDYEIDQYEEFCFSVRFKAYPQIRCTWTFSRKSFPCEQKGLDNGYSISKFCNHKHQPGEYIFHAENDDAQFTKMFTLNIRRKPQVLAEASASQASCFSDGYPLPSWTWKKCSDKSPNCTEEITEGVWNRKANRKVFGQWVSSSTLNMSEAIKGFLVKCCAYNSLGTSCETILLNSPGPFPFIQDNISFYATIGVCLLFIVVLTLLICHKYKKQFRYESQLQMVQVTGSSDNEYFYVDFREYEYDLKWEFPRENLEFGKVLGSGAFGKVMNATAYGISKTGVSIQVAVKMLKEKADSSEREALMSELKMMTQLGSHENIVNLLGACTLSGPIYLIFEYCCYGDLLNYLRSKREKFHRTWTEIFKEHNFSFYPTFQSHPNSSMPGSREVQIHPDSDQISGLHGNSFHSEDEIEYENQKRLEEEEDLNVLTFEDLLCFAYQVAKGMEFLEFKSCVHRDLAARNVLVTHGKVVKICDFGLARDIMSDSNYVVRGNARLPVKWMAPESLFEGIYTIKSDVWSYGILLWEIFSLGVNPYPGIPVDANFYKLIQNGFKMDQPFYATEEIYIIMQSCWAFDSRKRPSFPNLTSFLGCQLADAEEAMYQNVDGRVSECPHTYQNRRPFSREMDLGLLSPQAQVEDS

T1 sequence (P51812 whole entry): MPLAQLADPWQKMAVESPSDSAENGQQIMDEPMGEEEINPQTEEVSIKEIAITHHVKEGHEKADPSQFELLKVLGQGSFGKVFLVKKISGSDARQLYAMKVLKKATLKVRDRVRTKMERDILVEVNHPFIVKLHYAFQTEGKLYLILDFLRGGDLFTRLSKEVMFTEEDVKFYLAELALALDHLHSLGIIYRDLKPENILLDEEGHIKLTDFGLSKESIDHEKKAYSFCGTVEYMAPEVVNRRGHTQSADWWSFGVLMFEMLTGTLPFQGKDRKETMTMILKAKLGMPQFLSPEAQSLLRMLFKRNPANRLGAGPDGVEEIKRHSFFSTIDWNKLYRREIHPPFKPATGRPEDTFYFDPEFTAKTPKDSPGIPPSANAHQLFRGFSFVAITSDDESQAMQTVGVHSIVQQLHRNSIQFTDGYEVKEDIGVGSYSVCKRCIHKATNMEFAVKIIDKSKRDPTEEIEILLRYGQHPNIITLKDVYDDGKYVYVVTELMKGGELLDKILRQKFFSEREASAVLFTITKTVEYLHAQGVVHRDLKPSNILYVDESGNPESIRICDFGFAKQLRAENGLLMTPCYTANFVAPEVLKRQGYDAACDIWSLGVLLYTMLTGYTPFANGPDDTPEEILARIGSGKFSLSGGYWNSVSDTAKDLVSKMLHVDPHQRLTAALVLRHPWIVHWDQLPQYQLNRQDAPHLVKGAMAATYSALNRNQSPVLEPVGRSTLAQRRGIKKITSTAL
Tyrosine-protein kinase JAK2, sequence (O60674 whole entry): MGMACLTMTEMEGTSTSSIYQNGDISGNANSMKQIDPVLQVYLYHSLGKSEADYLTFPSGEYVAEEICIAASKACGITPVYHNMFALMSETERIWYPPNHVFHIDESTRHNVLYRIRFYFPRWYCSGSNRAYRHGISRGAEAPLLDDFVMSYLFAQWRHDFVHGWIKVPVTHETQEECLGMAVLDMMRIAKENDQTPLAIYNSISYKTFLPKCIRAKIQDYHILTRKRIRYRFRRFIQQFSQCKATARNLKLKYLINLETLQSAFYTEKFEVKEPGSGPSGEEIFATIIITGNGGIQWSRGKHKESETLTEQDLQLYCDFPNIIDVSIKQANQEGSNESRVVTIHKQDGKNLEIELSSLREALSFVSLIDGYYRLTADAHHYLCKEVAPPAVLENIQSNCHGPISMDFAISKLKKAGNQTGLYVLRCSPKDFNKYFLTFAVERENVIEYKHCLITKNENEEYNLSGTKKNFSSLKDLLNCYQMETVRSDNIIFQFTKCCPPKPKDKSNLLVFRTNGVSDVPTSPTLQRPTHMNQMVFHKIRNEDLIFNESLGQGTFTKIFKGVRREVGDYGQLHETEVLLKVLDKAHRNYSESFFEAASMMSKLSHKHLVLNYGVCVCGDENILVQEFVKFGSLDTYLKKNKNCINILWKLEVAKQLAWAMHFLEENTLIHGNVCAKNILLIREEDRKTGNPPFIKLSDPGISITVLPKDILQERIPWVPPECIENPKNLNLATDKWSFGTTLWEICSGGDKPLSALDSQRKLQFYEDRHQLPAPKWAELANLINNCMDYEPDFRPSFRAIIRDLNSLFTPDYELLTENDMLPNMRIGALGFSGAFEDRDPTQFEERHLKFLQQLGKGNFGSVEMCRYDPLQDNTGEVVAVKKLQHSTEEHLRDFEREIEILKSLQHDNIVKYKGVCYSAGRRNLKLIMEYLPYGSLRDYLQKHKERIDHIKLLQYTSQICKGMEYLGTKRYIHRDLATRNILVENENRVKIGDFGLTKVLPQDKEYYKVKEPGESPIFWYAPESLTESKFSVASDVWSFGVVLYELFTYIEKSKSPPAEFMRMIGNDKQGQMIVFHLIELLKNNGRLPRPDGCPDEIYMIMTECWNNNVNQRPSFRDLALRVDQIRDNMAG
Ribosomal protein S6 kinase beta-1, sequence (P23443 whole entry): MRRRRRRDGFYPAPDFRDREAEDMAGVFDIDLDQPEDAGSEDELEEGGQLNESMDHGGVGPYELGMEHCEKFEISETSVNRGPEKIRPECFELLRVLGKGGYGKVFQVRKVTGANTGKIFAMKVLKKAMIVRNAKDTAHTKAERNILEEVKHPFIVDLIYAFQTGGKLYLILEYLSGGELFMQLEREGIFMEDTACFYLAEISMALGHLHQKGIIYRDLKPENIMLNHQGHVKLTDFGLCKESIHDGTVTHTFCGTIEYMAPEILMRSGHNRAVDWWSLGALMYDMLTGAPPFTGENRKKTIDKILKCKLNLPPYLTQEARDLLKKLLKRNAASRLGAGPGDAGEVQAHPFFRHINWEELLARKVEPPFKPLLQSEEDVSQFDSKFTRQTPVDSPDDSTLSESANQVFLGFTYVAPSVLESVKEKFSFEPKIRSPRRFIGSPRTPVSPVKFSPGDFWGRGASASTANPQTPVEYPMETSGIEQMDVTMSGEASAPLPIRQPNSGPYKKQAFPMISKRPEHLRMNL
Fibroblast growth factor receptor 1, sequence (P11362 whole entry): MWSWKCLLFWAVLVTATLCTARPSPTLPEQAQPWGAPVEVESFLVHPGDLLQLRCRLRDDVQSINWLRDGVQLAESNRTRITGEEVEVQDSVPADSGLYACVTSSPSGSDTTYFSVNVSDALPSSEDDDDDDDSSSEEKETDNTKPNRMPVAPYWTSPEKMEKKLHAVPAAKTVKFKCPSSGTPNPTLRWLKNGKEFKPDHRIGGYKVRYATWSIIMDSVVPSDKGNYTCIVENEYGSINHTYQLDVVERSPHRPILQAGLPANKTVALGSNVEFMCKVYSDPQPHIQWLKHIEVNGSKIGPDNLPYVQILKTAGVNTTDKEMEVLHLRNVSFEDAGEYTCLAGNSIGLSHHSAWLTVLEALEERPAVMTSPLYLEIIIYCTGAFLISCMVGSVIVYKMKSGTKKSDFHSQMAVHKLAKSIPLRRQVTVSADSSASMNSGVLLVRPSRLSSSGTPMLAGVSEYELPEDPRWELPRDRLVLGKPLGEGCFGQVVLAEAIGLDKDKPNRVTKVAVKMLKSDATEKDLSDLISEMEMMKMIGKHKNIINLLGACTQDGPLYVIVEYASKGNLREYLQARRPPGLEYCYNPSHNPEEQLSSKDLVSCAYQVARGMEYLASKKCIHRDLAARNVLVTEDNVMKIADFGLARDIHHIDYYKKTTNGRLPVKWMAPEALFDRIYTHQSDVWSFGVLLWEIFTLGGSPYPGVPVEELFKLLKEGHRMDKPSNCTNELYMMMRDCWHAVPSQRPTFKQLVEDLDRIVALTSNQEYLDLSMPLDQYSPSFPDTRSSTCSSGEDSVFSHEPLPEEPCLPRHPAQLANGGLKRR
Fibroblast growth factor receptor 2, sequence (P21802 whole entry): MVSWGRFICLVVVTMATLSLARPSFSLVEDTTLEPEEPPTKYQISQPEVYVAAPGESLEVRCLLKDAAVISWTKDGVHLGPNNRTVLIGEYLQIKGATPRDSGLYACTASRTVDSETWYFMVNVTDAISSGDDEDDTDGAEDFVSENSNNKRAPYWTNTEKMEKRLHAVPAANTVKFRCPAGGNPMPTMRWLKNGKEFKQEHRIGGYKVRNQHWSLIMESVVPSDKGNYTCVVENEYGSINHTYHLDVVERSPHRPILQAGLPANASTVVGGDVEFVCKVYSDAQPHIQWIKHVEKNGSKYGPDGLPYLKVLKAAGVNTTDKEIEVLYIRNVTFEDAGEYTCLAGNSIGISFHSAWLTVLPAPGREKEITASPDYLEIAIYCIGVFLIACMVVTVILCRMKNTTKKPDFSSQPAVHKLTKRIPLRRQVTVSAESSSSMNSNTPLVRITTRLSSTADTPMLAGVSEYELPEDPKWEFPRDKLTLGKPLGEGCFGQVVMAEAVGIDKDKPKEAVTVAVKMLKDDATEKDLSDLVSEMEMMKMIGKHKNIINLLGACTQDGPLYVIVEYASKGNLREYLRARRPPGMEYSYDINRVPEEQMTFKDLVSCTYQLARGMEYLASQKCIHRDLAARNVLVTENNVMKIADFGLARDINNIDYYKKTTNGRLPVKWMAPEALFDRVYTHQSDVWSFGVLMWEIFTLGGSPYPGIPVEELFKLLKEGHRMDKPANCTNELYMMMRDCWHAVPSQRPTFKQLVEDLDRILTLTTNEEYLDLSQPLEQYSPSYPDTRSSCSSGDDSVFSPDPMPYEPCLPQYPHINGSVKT

IC50 [1] [nM]	IC50 [2] [nM]	Compound	other results
20	2800	Oc1ccc(-c2cn[nH]c2-c2ccc(O)cc2)cc1	–
–	340	CN1CCN(c2ccc(-c3ccncc3-c3cc(F)c(O)c(F)c3)cc2)CC1	–
–	210	Oc1c(F)cc(-c2cnccc2-c2ccc(N3CCOCC3)cc2)cc1F	–
500	> 20000	COc1c(F)cc(-c2cnc3[nH]ccc3c2-c2ccc(N3CCN(C)CC3)cc2)cc1F	–
800	18100	CN1CCN(c2ccc(-c3c(-c4ccc(C(F)F)cc4)cnc4[nH]ccc34)cc2)CC1	–
2	50	Oc1c(F)cc(-c2cnc3[nH]ccc3c2-c2ccc(N3CCOCC3)cc2)cc1F	solubility [3]: < 0.22 µg/mL
240	2400	CN1CCN(c2ccc(-c3c(-c4cn[nH]c4)cnc4[nH]ccc34)cc2)CC1	–
38	6000	CN1CCN(c2ccc(-c3c(-c4cc(F)cc(F)c4)cnc4[nH]ccc34)cc2)CC1	–
1900	> 20000	CN1CCN(c2ccc(-c3c(-c4ccc(F)cc4)cnc4[nH]ccc34)cc2)CC1	–
1100	> 20000	CN1CCN(c2ccc(-c3c(-c4ccnc(F)c4)cnc4[nH]ccc34)cc2)CC1	–
810	7200	CN1CCN(c2ccc(-c3c(-c4ccc(N)nc4)cnc4[nH]ccc34)cc2)CC1	–
2	232	Cc1ccc(-c2c(-c3cc(F)c(O)c(F)c3)cnc3[nH]ccc23)cc1	–
0.3	54	CN1CCN(c2ccc(-c3c(-c4cc(F)c(O)c(F)c4)cnc4[nH]ccc34)cc2)CC1	IC50 [4]: < 1000 nM; efflux ratio [5]: 0.8; solubility [3]: 10.3 µg/mL (≈ 24.5 µM); IC50 [6]: < 1000 nM; IC50 [7]: < 1000 nM; IC50 [8]: < 1000 nM; IC50 [9]: < 1000 nM; IC50 [10]: < 1000 nM; IC50 [11]: < 1000 nM; IC50 [12]: 120 nM; IC50 [13]: 120 nM

From ChEMBL document CHEMBL4265896, “Design and synthesis of potent RSK inhibitors” (Bioorg Med Chem Lett, 2018)
